Numbering of substitutions follows the chain as printed.
Assays:
[1] = target: T1, KIF5B-RET mutant form V804M in HEK293 cells (Homo sapiens, UniProt P07949, V804M); assay: RET cell assay (In-Cell Western, phospho-RET Y1062), V804M; type: cell-based; settings: HEK293, doxycycline-induced KIF5B-RET V804M, 1 hr compound treatment; read-out: EC50, inhibition of intracellular autophosphorylation of RET at tyrosine 1062, V804M cells
T1 construct: expressed in transfected cells; host or cells: HEK293; the other entry of the earlier key: KIF5B (P33176, Kinesin-1 heavy chain)
T1 sequence (P07949 713-1063 V804M limits assumed): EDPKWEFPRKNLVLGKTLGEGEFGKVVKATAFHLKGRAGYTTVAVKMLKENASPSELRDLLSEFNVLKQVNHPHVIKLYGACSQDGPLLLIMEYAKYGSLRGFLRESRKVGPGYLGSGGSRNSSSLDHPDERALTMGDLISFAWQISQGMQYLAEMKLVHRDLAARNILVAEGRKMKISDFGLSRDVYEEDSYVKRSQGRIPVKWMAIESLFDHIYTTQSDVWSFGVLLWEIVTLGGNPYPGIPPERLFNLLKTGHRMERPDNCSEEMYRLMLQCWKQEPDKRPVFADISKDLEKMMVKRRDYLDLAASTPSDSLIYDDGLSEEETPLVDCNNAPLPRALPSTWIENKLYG
Protocol: (§1) Compounds of formulas (I), (II), and (III) are screened for their ability to inhibit the intracellular autophosphorylation of RET at tyrosine 1062 as detected by In-Cell Western. HEK293 cells containing a doxycycline-inducible plasmid for inducible expression of KIF5B-RET WT and RET mutant forms V804M and G810S are seeded at 25,000 cells/well into black poly-D-lysine pre-coated 384-well plates (Corning, Catalog No. 356697). Expression of KIF5B-RET is induced with doxycycline at 1 μg/mL and cells are incubated at 37° C. overnight. Compounds are prepared in a threefold serial dilution in DMSO before further diluting 1:100 in media prior to the addition to the cells (0.1% final DMSO concentration). Compound treatment is performed for 1 hr at 37° C. followed by fixation of cells with 4% formaldehyde for 20 min at RT and cell permeabilisation with ice-cold MeOH for 10 min at RT. Cells are incubated with Intercept® blocking buffer (Li—COR, Catalogue No. 927-70010) for 1 hr at RT. Incubation with primary antibodies against human phospho-RET (Y1062) (R&D, Catalogue No. AF5009, 1/250 dilution) and human glyceraldehyde-3-phosphate dehydrogenase (clone 6C5, Merck, Catalog No. MAB374, 1/1000 dilution) are performed overnight at 4° C. Incubation with secondary antibodies IRDye® 800CW goat anti-rabbit IgG (Li—COR, Catalogue No. 926-32211, 1/1000 dilution) and IRDye® 680CW goat anti-mouse IgG (Li—COR, Catalogue No. 926-68070, 1/1000 dilution) are performed for 1 hr at RT. All antibody dilutions are done in Intercept® blocking buffer containing 0.05% Tween20. After washing cells with PBS-T (Cell Signaling technology, Catalogue No. 9809), the images are acquired on a Li—COR Odyssey LCx at 700 and 800 nm. Percent of DMSO control is calculated with 100% signal referring to control conditions containing no compound (0.4% DMSO only) and 0% signal represented by conditions containing control compound. The % of DMSO control values are fit to a 4 parameter logistic curve, and the determined EC50 value is defined as the estimated concentration of inhibitor at the inflexion point of the fitted curve.

[2] = target: T2, KIF5B-RET mutant form G810S in HEK293 cells (Homo sapiens, UniProt P07949, G810S); assay: RET cell assay (In-Cell Western, phospho-RET Y1062), G810S; type: cell-based; settings: HEK293, doxycycline-induced KIF5B-RET G810S, 1 hr compound treatment; read-out: EC50, inhibition of intracellular autophosphorylation of RET at tyrosine 1062, G810S cells
T2 construct: expressed in transfected cells; host or cells: HEK293; the other entry of the earlier key: KIF5B (P33176, Kinesin-1 heavy chain)
T2 sequence (P07949 713-1063 G810S limits assumed): T1 sequence (P07949 713-1063 V804M limits assumed) with M92V, G98S
Protocol: as §1

| EC50 [1] | EC50 [2] | Compound |
| --- | --- | --- |
| < 100 nM | < 100 nM | CC(C(=O)Nc1cc(C(C)(C)C(F)(F)F)no1)c1ccc(-c2nn(C(C)C)c(N)c2C(N)=O)cc1 (single isomer, unassigned; isomer 1) [Example 17, 5-Amino-1-isopropyl-3-[4-(1-[[3-(1,1,1-trifluoro-2-methylpropan-2-yl)-1,2-oxazol-5-yl]carbamoyl]ethyl)phenyl]pyrazole-4-carboxamide, Isomer 1] |
| < 100 nM | < 100 nM | CC(C(=O)Nc1cc(C(C)(C)C(F)(F)F)on1)c1ccc(-c2nn(C(C)C)c(N)c2C(N)=O)nc1 (single isomer, unassigned; isomer 2) [Example 64, 5-Amino-1-isopropyl-3-[5-(1-[[5-(1,1,1-trifluoro-yl)-1,2-oxazol-3-2-methylpropan-2-yl]carbamoyl]ethyl)pyridin-2-yl]pyrazole-4-carboxamide, Isomer 2] |
| < 100 nM | < 100 nM | CC(C(=O)Nc1cc(C(C)(C)C(F)(F)F)on1)c1ccc(-c2nn(C(C)C)c(N)c2C(N)=O)cc1 (single isomer, unassigned; isomer 1) [Example 81, 5-Amino-1-isopropyl-3-[4-(1-[[5-(1,1,1-trifluoro-2-methylpropan-2-yl)-1,2-oxazol-3-yl]carbamoyl]ethyl)phenyl]pyrazole-4-carboxamide, Isomer 1] |
| < 100 nM | < 100 nM | CC(C(=O)Nc1cc(-c2ccc(Cl)cc2Cl)no1)c1ccc(-c2nn(C(C)C)c(N)c2C(N)=O)cc1 (single isomer, unassigned; isomer 1) [Example 45, 5-Amino-3-[4-(1-[[3-(2,4-dichlorophenyl)-1,2-oxazol-5-yl]carbamoyl]ethyl)phenyl]-1-isopropylpyrazole-4-carboxamide, Isomer 1] |
| < 100 nM | < 100 nM | CC(C(=O)Nc1cc(C(C)(C)C(C)(F)F)on1)c1ccc(-c2nn(C(C)C)c(N)c2C(N)=O)cc1 (single isomer, unassigned; isomer 2) [Example 76, 5-Amino-3-[4-(1-[[5-(3,3-difluoro-2-methylbutan-2-yl)-1,2-oxazol-3-yl]carbamoyl]ethyl)phenyl]-1-isopropylpyrazole-4-carboxamide, Isomer 2] |
| < 100 nM | < 100 nM | CCC(C)(C)c1cc(NC(=O)C(C)c2ccc(-c3nn(C(C)C)c(N)c3C(N)=O)cn2)on1 (single isomer, unassigned; isomer 2) [Example 84, 5-Amino-1-isopropyl-3-[6-[2-[[3-(1,1-dimethylpropyl)isoxazol-5-yl]amino]-1-methyl-2-oxo-ethyl]-3-pyridyl]pyrazole-4-carboxamide, Isomer 2] |
| < 100 nM | < 100 nM | CC(C(=O)Nc1cc(C(C)(C)C(F)(F)F)no1)c1ccc(-c2nn(C(C)C)c(N)c2C(N)=O)cn1 (single isomer, unassigned; isomer 2) [Example 90, 5-Amino-1-isopropyl-3-[6-[1-methyl-2-oxo-2-[[3-(2,2,2-trifluoro-1,1-dimethyl-ethyl)isoxazol-5-yl]amino]ethyl]-3-pyridyl]pyrazole-4-carboxamide, Isomer 2] |
| < 100 nM | < 100 nM | CC(C(=O)Nc1cc(C(C)(C)C)sn1)c1ccc(-c2nn(C(C)C)c(N)c2C(N)=O)cc1 (single isomer, unassigned; isomer 2) [Example 80, 5-Amino-3-(4-[1-[(5-tert-butyl-1,2-thiazol-3-yl)carbamoyl]ethyl]phenyl)-1-isopropylpyrazole-4-carboxamide, isomer 2] |
| < 100 nM | < 100 nM | CC(C(=O)Nc1cc(C2(C)CC2)no1)c1ccc(-c2nn(C(C)C)c(N)c2C(N)=O)cc1 (single isomer, unassigned; isomer 1) [Example 35, 5-Amino-1-isopropyl-3-[4-(1-[[3-(1-methylcyclopropyl)-1,2-oxazol-5-yl]carbamoyl]ethyl)phenyl]pyrazole-4-carboxamide, Isomer 1] |

From patent publication US11613533B2, “Compounds useful for inhibiting RET kinase” (Eli Lilly and Company, priority 2020, dated 2023)
